Source: patent publication US20230278981A1, “DICHLOROPHENOL HSD17B13 INHIBITORS AND USES THEREOF” (INIPHARM, INC., priority 2020, published 2023)

Biological target: HSD17B13 (Homo sapiens (Human), UniProt Q7Z5P4)
Test: LC/MS estrone detection assay: conversion of estradiol to estrone by HSD17B13
Assay type: biochemical
Details: 4 μM estradiol, 6 mM NAD+, 30 nM HSD17B13 enzyme (E. coli expressed His-tagged), 2 hours at 26.5° C.
In short: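 His-tagged E. coli-expressed HSD17B13 (30 nM) with 4 μM estradiol and 6 mM NAD+ in 1 M potassium phosphate pH 7.4, 0.5% DMSO, 2 h at 26.5° C. Estrone and estradiol quantified by LC-MS/MS after MeCN quench with D4-estrone internal standard; activity as % of uninhibited enzyme, IC50 by four-parameter fit, duplicates.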

Chain of HSD17B13 (Q7Z5P4 20-300): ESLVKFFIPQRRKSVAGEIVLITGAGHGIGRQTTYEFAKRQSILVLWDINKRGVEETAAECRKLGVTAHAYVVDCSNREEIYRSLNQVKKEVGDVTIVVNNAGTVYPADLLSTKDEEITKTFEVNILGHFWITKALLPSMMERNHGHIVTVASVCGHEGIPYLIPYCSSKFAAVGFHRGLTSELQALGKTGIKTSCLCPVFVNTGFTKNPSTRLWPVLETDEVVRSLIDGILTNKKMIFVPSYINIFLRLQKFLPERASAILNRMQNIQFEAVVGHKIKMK

IC50 [nM]	SMILES
100 to 500	Cc1ccc(NC(=O)c2cc(Cl)c(O)c(Cl)c2)c2c(=O)n(Cc3ncccc3Cl)c(C)nc12 [Example 172, 3,5-dichloro-N-(3-((3-chloropyridin-2-yl)methyl)-2,8-dimethyl-4-oxo-3,4-dihydroquinazolin-5-yl)-4-hydroxybenzamide]
100 to 500	Cc1nc2c(F)ccc(NC(=O)c3cc(Cl)c(O)c(Cl)c3)c2c(=O)n1[C@@H](C)c1ccccc1OC(F)(F)F [Example 173, (S)-3,5-dichloro-N-(8-fluoro-2-methyl-4-oxo-3-(1-(2-(trifluoromethoxy)phenyl)ethyl)-3,4-dihydroquinazolin-5-yl)-4-hydroxybenzamide]
100 to 500	Cc1nc2c(F)ccc(NC(=O)c3cc(Cl)c(O)c(Cl)c3)c2c(=O)n1[C@H](C)c1ccccc1OC(F)(F)F [Example 174, (R)-3,5-dichloro-N-(8-fluoro-2-methyl-4-oxo-3-(1-(2-(trifluoromethoxy)phenyl)ethyl)-3,4-dihydroquinazolin-5-yl)-4-hydroxybenzamide]
≤ 100	[2H]C([2H])([2H])c1nc2c(C)ccc(NC(=O)c3cc(Cl)c(O)c(Cl)n3)c2c(=O)n1Cc1ccccc1OC(F)(F)F [Example 176, 4,6-dichloro-5-hydroxy-N-(8-methyl-2-(methyl-d3)-4-oxo-3-(2-(trifluoromethoxy)benzyl)-3,4-dihydroquinazolin-5-yl)picolinamide]
100 to 500	Cc1ccc(NC(=O)c2cc(Cl)c(O)c(Cl)n2)c2c(=O)n(Cc3ncccc3C(F)(F)F)c(C(F)F)nc12 [Example 177, 4,6-dichloro-N-(2-(difluoromethyl)-8-methyl-4-oxo-3-((3-(trifluoromethyl)pyridin-2-yl)methyl)-3,4-dihydroquinazolin-5-yl)-5-hydroxypicolinamide]
500 to 1000	Cc1ccc(NC(=O)c2cc(Cl)c(O)c(Cl)n2)c2c(=O)n(Cc3ncccc3Cl)c(C)nc12 [Example 178, 4,6-dichloro-N-(3-((3-chloropyridin-2-yl)methyl)-2,8-dimethyl-4-oxo-3,4-dihydroquinazolin-5-yl)-5-hydroxypicolinamide]
≤ 100	[2H]C([2H])([2H])c1nc2c(C)ccc(NC(=O)c3cc(Cl)c(O)c(Cl)c3)c2c(=O)n1Cc1ccccc1C(F)(F)F [Example 179, 3,5-dichloro-4-hydroxy-N-(8-methyl-2-(methyl-d3)-4-oxo-3-(2-(trifluoromethyl)benzyl)-3,4-dihydroquinazolin-5-yl)benzamide]
100 to 500	[2H]C([2H])([2H])c1nc2c(C)ccc(NC(=O)c3cc(Cl)c(O)c(Cl)n3)c2c(=O)n1Cc1ccccc1C(F)(F)F [Example 180, 4,6-dichloro-5-hydroxy-N-(8-methyl-2-(methyl-d3)-4-oxo-3-(2-(trifluoromethyl)benzyl)-3,4-dihydroquinazolin-5-yl)picolinamide]
100 to 500	Cc1ccc(NC(=O)c2cc(Cl)c(O)c(Cl)n2)c2c(=O)n(Cc3ccccc3C(F)(F)F)c(C(F)F)nc12 [Example 181, 4,6-dichloro-N-(2-(difluoromethyl)-8-methyl-4-oxo-3-(2-(trifluoromethyl)benzyl)-3,4-dihydroquinazolin-5-yl)-5-hydroxypicolinamide]
≤ 100	O=C(Nc1scnc1C(=O)NCc1ccccc1C(F)(F)F)c1cc(Cl)c(O)c(Cl)c1 [Example 182, 5-(3,5-dichloro-4-hydroxybenzamido)-N-(2-(trifluoromethyl)benzyl)thiazole-4-carboxamide]
100 to 500	Cc1ccc(NC(=O)c2cc(Cl)c(O)c(Cl)c2)c2c(=O)n(Cc3ncccc3F)c(C)nc12 [Example 183, 3,5-dichloro-N-(3-((3-fluoropyridin-2-yl)methyl)-2,8-dimethyl-4-oxo-3,4-dihydroquinazolin-5-yl)-4-hydroxybenzamide]
100 to 500	[2H]C([2H])([2H])c1nc2c(F)ccc(NC(=O)c3cc(Cl)c(O)c(Cl)n3)c2c(=O)n1Cc1ccccc1C(F)(F)F [Example 184, 4,6-dichloro-N-(8-fluoro-2-(methyl-d3)-4-oxo-3-(2-(trifluoromethyl)benzyl)-3,4-dihydroquinazolin-5-yl)-5-hydroxypicolinamide]
≤ 100	Cc1ccc(NC(=O)c2cc(Cl)c(O)c(Cl)c2)c2c(=O)n(Cc3ccccc3C(F)(F)F)c(CF)nc12 [Example 186, 3,5-dichloro-N-(2-(fluoromethyl)-8-methyl-4-oxo-3-(2-(trifluoromethyl)benzyl)-3,4-dihydroquinazolin-5-yl)-4-hydroxybenzamide]
100 to 500	Cn1nc(CNC(=O)c2ncsc2NC(=O)c2cc(Cl)c(O)c(Cl)n2)c2ccccc21 [Example 187, 5-(4,6-dichloro-5-hydroxypicolinamido)-N-((1-methyl-1H-indazol-3-yl)methyl)thiazole-4-carboxamide]
≤ 100	Cn1nc(CNC(=O)c2ncsc2NC(=O)c2cc(Cl)c(O)c(Cl)c2)c2ccccc21 [Example 188, 5-(3,5-dichloro-4-hydroxybenzamido)-N-((1-methyl-1H-indazol-3-yl)methyl)thiazole-4-carboxamide]
100 to 500	O=C(Nc1scnc1C(=O)NCc1cccc(F)c1)c1cc(Cl)c(O)c(Cl)n1 [Example 189, 5-(4,6-dichloro-5-hydroxypicolinamido)-N-(3-fluorobenzyl)thiazole-4-carboxamide]
≤ 100	Cc1nc2c(F)ccc(NC(=O)c3cc(Cl)c(O)c(Cl)c3)c2c(=O)n1Cc1nn(C)c2ccccc12 [Example 190, 3,5-dichloro-N-(8-fluoro-2-methyl-3-((1-methyl-1H-indazol-3-yl)methyl)-4-oxo-3,4-dihydroquinazolin-5-yl)-4-hydroxybenzamide]
≤ 100	O=C(Nc1scnc1C(=O)NCc1ccccc1OC(F)(F)F)c1cc(Cl)c(O)c(Cl)n1 [Example 191, 5-(4,6-dichloro-5-hydroxypicolinamido)-N-(2-(trifluoromethoxy)benzyl) thiazole-4-carboxamide]
100 to 500	O=C(Nc1scnc1C(=O)NCc1ccccc1C(F)(F)F)c1cc(Cl)c(O)c(Cl)n1 [Example 192, 5-(4,6-dichloro-5-hydroxypicolinamido)-N-(2-(trifluoromethyl)benzyl)thiazole-4-carboxamide]
500 to 1000	O=C(Nc1scnc1C(=O)NCc1cccc(C(F)(F)F)n1)c1cc(Cl)c(O)c(Cl)n1 [Example 193, 5-(4,6-dichloro-5-hydroxypicolinamido)-N-((6-(trifluoromethyl)pyridin-2-yl)methyl)thiazole-4-carboxamide]
100 to 500	Cc1nc2c(F)ccc(NC(=O)c3cc(Cl)c(O)c(Cl)n3)c2c(=O)n1Cc1nn(C)c2ccccc12 [Example 194, 4,6-dichloro-N-(8-fluoro-2-methyl-3-((1-methyl-1H-indazol-3-yl)methyl)-4-oxo-3,4-dihydroquinazolin-5-yl)-5-hydroxypicolinamide]
1000 to 10000	Cc1ccc(NC(=O)c2cc(Cl)c(O)c(Cl)n2)c2c(=O)n(Cc3ncccc3F)c(C)nc12 [Example 195, 4,6-dichloro-N-(3-((3-fluoropyridin-2-yl)methyl)-2,8-dimethyl-4-oxo-3,4-dihydroquinazolin-5-yl)-5-hydroxypicolinamide]
100 to 500	O=C(Nc1scnc1C(=O)NCc1ncccc1C(F)(F)F)c1cc(Cl)c(O)c(Cl)n1 [Example 196, 5-(4,6-dichloro-5-hydroxypicolinamido)-N-((3-(trifluoromethyl)pyridin-2-yl)methyl)thiazole-4-carboxamide]
500 to 1000	Cc1nc2c(F)ccc(NC(=O)c3cc(Cl)c(O)c(Cl)c3)c2c(=O)n1Cc1cccc(C(F)(F)F)n1 [Example 197, 3,5-dichloro-N-(8-fluoro-2-methyl-4-oxo-3-((6-(trifluoromethyl)pyridin-2-yl)methyl)-3,4-dihydroquinazolin-5-yl)-4-hydroxybenzamide]
500 to 1000	O=C(Nc1scnc1C(=O)NCc1cccc(C(F)(F)F)n1)c1cc(Cl)c(O)c(Cl)c1 [Example 198, 5-(3,5-dichloro-4-hydroxybenzamido)-N-((6-(trifluoromethyl)pyridin-2-yl)methyl)thiazole-4-carboxamide]
500 to 1000	Cc1ccc(NC(=O)c2cc(Cl)c(O)c(Cl)c2)c2c(=O)n(Cc3cccc(C(F)(F)F)n3)c(C)nc12 [Example 199, 3,5-dichloro-N-(2,8-dimethyl-4-oxo-3-((6-(trifluoromethyl)pyridin-2-yl)methyl)-3,4-dihydroquinazolin-5-yl)-4-hydroxybenzamide]
≤ 100	[2H]C([2H])(c1ccccc1C(F)(F)F)n1c(C)nc2c(C)ccc(NC(=O)c3cc(Cl)c(O)c(Cl)c3)c2c1=O [Example 200, 3,5-dichloro-N-(2,8-dimethyl-4-oxo-3-((2-(trifluoromethyl)phenyl)methyl-d2)-3,4-dihydroquinazolin-5-yl)-4-hydroxybenzamide]
100 to 500	[2H]C([2H])(c1ccccc1C(F)(F)F)n1c(C)nc2c(C)ccc(NC(=O)c3cc(Cl)c(O)c(Cl)n3)c2c1=O [Example 201, 4,6-dichloro-N-(2,8-dimethyl-4-oxo-3-{[2-(trifluoromethyl)phenyl](^2H2)methyl}-3,4-dihydroquinazolin-5-yl)-5-hydroxypyridine-2-carboxamide]
100 to 500	Cc1ccc(NC(=O)c2cc(Cl)c(O)c(Cl)n2)c2c(=O)n([C@@H]3CC[C@H]3c3ccccc3)c(C)nc12 [Example 202, 4,6-dichloro-N-(2,8-dimethyl-4-oxo-3-((1R,2S)-2-phenylcyclobutyl)-3,4-dihydroquinazolin-5-yl)-5-hydroxypicolinamide]
≤ 100	Cc1ccc(NC(=O)c2cc(Cl)c(O)c(Cl)c2)c2c(=O)n([C@@H]3CC[C@H]3c3ccccc3)c(C)nc12 [Example 203, 3,5-dichloro-N-(2,8-dimethyl-4-oxo-3-((1R,2S)-2-phenylcyclobutyl)-3,4-dihydroquinazolin-5-yl)-4-hydroxybenzamide]
